# Experimental data published in PMC7576480, “Hydroxy-Propil-β-Cyclodextrin Inclusion Complexes of two Biphenylnicotinamide Derivatives: Formulation and Anti-Proliferative Activity Evaluation in Pancreatic Cancer Cell Models” (International Journal of Molecular Sciences, 2020).
# Read-outs that look alike come from different tables or passages of the source.
# How the values were obtained:
# [1] = Solubility in ultra-pure water and in HP-β-CD solutions at 37 °C; assay type: physicochemical; conditions: for solubility: 37 °C, thermodynamic from solid, ultra-pure water, 37 ± 0.5 °C; for Increase in aqueous solubility: HP-β-CD 45% w/v versus water alone
# Method: Quantitative analysis of PTA34 and PTA73 was carried out by spectrophotometry using a dual-beam UV-VIS Lambda 20 Bio spectrophotometer (Perkin Elmer, Milan, Italy) and quartz cuvettes, with a capacity of 1 mL, using methanol as solvent. In the case of PTA34 the reading was carried out at a wavelength of 320 nm, and a calibration straight line (r^2 = 0.9979), in the concentration range between 0.15 mg/mL (4.45 × 10^−4 mM) and 0.015 mg/mL (4.45 × 10^−5 mM), was obtained. For PTA73 the reading was carried out at a wavelength of 340 nm, and a calibration straight line (r^2 = 0.9999) in the concentration range between 0.16 mg/mL (5.01 × 10^−4 mM) and 0.016 mg/mL (5.01 × 10^−5 mM), was obtained.
# (§1) The phase solubility study was conducted according with Higuchi and Connors. In detail, an excess of PTA34 or PTA73 was added to 1 mL of solutions containing HP-β-CD in the appropriate concentration (0–45% w/v) in 4 mL vials, with screw caps to avoid evaporation. The obtained mixtures were vigorously vortexed for about 5 min, and the suspensions thus obtained were placed under constant stirring in a thermostat bath at 37 ± 0.5 °C for about 48 h, until the saturation of the system was achieved. Then, each suspension was centrifuged at 13,200 rpm (MIKRO 22 R, Hettich Zentrifugen, Germany) in order to remove the uncomplexed drug and the supernatant was analyzed by spectrophotometry for the quantification of the drug, after appropriate dilution. All determinations were conducted at least in triplicate. The obtained data were used to determine the apparent stability 1:1 constant (K1:1) of the HP-β-CD inclusion complexes with the biphenylnicotinamide derivatives, using the Higuchi and Connors equation: K1:1=slope/S0(1−slope) where slope is the slope of the obtained phase solubility diagrams straight line, and S0 represents PTA34 or PTA73 intrinsic solubility determined in the same way.
# [2] = system: Panc-1 cells; assay: Cell cycle analysis by flow cytometry (PI staining); assay type: cell-based, human; conditions: PANC-1, 1 µM in terms of PTA, 24 h
# Method: (§2) For the cell cycle analysis, human pancreatic cancer cells were seeded in 60 mm dishes at a density of 500,000/well and incubated for 24 h at 37 °C, with PTA34, PTA73 both complexed and not at concentration 1 µM in terms of PTA’s, and with cyclodextrin alone at concentration equal to 290 µg/mL. Cells were then harvested, washed twice in ice-cold PBS pH 7.4, fixed in 4 mL of 70% ethanol, and stored at -20 °C until analysis. The cell cycle modulation induced by treatments was studied as previously described by propidium iodide (PI) staining; the pellet was resuspended in PBS without Ca^2+ and Mg^2+, containing 1 mg/mL RNase, 0.01% NP40, and 50 ĉg/mL PI (Sigma), and then flow cytometry analysis was performed on Attune NxT acoustic focusing cytometer (Life Technologies). Data were interpreted using the CytExpert software v.1.2, provided by the manufacturer.
# [3] = system: AsPC-1 cells; assay: as above; assay type: cell-based, human; conditions: AsPC-1, 1 µM in terms of PTA, 24 h
# Method: as §2
# [4] = system: MIA PaCa-2 cells; assay: as above; assay type: cell-based, human; conditions: MIA PaCa-2, 1 µM in terms of PTA, 24 h
# Method: as §2
# [5] = system: Panc-1 cells; assay: MTT cell proliferation assay; assay type: cell-based; conditions: Homo sapiens, Panc-1, 72 h, concentration in terms of PTA, ± SD
# Method: (§3) Human pancreatic ductal adenocarcinoma (PDAC) PANC-1 cells, human pancreas adenocarcinoma ascites metastasis cells AsPC-1, and undifferentiated human pancreatic carcinoma MIAPaCa-2 cells, were purchased from ATCC®. PANC-1 and AsPC-1 cells were cultured in Dulbecco’s modified Eagle’s medium (DMEM), supplemented with fetal bovine serum (FBS), to a final concentration of 10%, L-glutamine 1% (v/v), and penicillin/streptomycin 1% (v/v). MIA PaCa-2 cells were grown in Roswell Park Memorial Institute (RPMI) medium, supplemented as above, and in addition with horse serum, to a final concentration of 2.5%. Cells were maintained in a humid atmosphere of 95% air and 5% CO2 at 37 °C. All materials for cell culturing were purchased from EuroClone (Pero, Milan, Italy).
# (§4) The 3-(4,5-dimethylthiazol-2-yl)-2,5- diphenyltetrazoliumbromide (MTT) assay was performed as previously described to investigate the effect of hydroxy-propil-β-cyclodextrin-complexed PTA34 and PTA73 (PTA34/HP-β-CD and PTA73/HP-β-CD, respectively) on cell viability of PANC-1, AsPC-1, and MIA PaCa-2 cell lines. The same uncomplexed compounds and HP-β-CD alone were also tested as reference compounds. Untreated cells were used as a […]. In particular, cells were seeded in 96 well plates at a density of 5000 cells/well, incubated for 24 h in culturing medium, and subsequently treated for 72 h, with compounds at 0.01–10 µM concentrations range, in terms of PTA34 or PTA73, included. HP-β-CD–cyclodextrin alone was tested in the concentrations range corresponding to that present in the complex, namely 2.9–2900 µg/mL. After the incubation period 10 µL of a 0.5% (w/v) MTT/PBS solution were added to each well, and the incubation was prolonged further for 2 h. After this period, medium was removed and replaced with 100 µL of DMSO. The absorbance in each well was measured by a microplate reader (MULTISKAN Sky, ThermoScientific). The results are shown as dose/effect plots of the mean of three different experiments. The IC50 was defined as the drug concentration yielding a fraction of affected (no surviving) cells = 0.5, normalized with untreated cells, and was calculated utilizing CalcuSyn v.1.1.1 software (Biosoft, UK).
# [6] = system: AsPC-1 cells; assay: MTT cell proliferation assay; assay type: cell-based; conditions: Homo sapiens, ASPC1, AsPC-1, 72 h, concentration in terms of PTA, ± SD
# Method: as §3, §4
# [7] = system: MIA PaCa-2 cells; assay: MTT cell proliferation assay; assay type: cell-based; conditions: Homo sapiens, MIA PaCa-2, 72 h, concentration in terms of PTA, ± SD
# Method: as §3, §4
# [8] = Phase-solubility study (Higuchi–Connors), apparent 1:1 stability constant with HP-β-CD; assay type: physicochemical; conditions: complex with HP-β-CD, from the phase solubility diagram, 37 ± 0.5 °C
# Method: as §1
# [9] = system: MIA PaCa-2 cells; set-up: method as in PMID 30583077; conditions: low doses; cited from earlier work
# [10] = HP-β-CD 0% w/v, read-out: Water solubility (intrinsic solubility, S0)
# [11] = read-out: Intrinsic solubility (S0)
SMILES,"solubility [1, 10]","solubility [1, 11]",Increase in aqueous solubility [1],Cells arrested in G2/M phase [2],Cells arrested in G2/M phase [3],Cells arrested in G2/M phase [4],IC50 [5],IC50 [6],IC50 [7],"1:1 apparent formation (equilibrium) constant, Ks [8]",Antitumor activity [9]
O=C(Nc1ccc(-c2ccc(F)cc2)cc1[N+](=O)[O-])c1cccnc1 [PTA34],1.95 ± 0.35 µg/mL,5.78 µM,about 150 times,57.9%,93%,36.7%,2500 ± 500 nM,1900 ± 300 nM,310 ± 40 nM,503.9 M⁻¹,remarkable antitumor activity
O=C(Nc1ccc(-c2ccccc2)cc1[N+](=O)[O-])c1cccnc1 [PTA73],7.16 ± 0.34 µg/mL,22.4 µM,~106 times,64.9%,94.1%,45.2%,1500 ± 200 nM,2300 ± 600 nM,6 ± 2 nM,369.2 M⁻¹,remarkable antitumor activity
